Measurements published in patent publication US10941129B2, “Benzyl phenyl ether derivative, preparation method therefor, and pharmaceutical composition and uses thereof” (Institute of Materia Medica, Chinese Academy of Medical …, priority 2016, dated 2021).

target: interaction between PD-1 and PD-L1 (Homo sapiens (Human), UniProt Q9NZQ7); assay: Cisbio PD-1/PD-L1 binding assay kit (HTRF); details: read-out: IC50, inhibitory activity at molecular level on the interaction between PD-1 and PD-L1
From the text: 1. In vitro activity evaluation: Cisbio PD-1/PD-L1 binding assay kit was applied for the detection method of in vitro enzymology level.
1) Principle: PD-1 protein is with HIS tag, and PD-1 ligand PD-L1 is with hFc tag. Eu labeled anti-hFc antibody and XL665 labeled anti-HIS antibody are combined with the above two label proteins respectively. After laser excitation, energy can be transferred from donor Eu to receptor XL665, allowing XL665 to glow.
2) Experimental method: The specific method can be referred to Cisbio's PD-1/PD-L1 Kit (item 64CUS000C-2). Reagents should be dispensed in the following order. For 384-well white ELISA plate, 2 μl of diluent or target compound diluted with diluent was added to each well, and then 4 μl of PD-1 protein and 4 μl of PD-L1 protein were added per well, incubated for 15 min at room temperature; and 10 μl of a mixture of anti-Tag1-Eu3^+ and anti-Tag2-XL665 was added per well and incubated for 1 h to 4 h at room temperature and the fluorescence signals at 665 nm and 620 nm were measured with an Envison instrument. HTRF rate=(665 nm/620 nm)*10^4. 8-10 concentrations were detected for each compound and IC50 was calculated by Graphpad software.

Chain of interaction between PD-1 and PD-L1 (Q9NZQ7 19-238): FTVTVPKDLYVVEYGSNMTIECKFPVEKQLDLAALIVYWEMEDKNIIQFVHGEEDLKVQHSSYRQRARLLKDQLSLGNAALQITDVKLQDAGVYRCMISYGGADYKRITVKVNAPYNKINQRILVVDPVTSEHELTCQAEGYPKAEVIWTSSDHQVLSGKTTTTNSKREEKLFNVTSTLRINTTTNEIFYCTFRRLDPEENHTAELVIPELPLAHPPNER

Row | Structure (SMILES) | IC50 [nM]
1 | C[C@H](O)[C@@H](NCc1ccc(OCc2cccc(-c3ccc4c(c3)OCCO4)c2Br)cc1OCc1cccc(C#N)c1)C(=O)O (stereo in doubt) [Example 19, N-(4-(2-bromo-3-(2,3-dihydrobenzo[b][1,4]dioxin-6-yl)benzyloxy)-2-(3-cyanobenzyloxy)benzyl) threonine] | 18.1
2 | N#Cc1cccc(COc2cc(OCc3cccc(-c4ccccc4)c3Br)ccc2CNC2CCOCC2)c1 [Example 9, N-(tetrahydro-2H-pyran-4-yl)-4-(2-bromo-3-phenylbenzyloxy)-2-(3-cyanobenzyloxy) benzylamine] | 788
3 | N#Cc1cccc(COc2cc(OCc3cccc(-c4ccccc4)c3Br)ccc2CN2CCC[C@H]2C(=O)O)c1 [Example 4, N-(4-(2-bromo-3-phenylbenzyloxy)-2-(3-cyanobenzyloxy)benzyl) proline] | 59.2
4 | N#Cc1cccc(COc2cc(OCc3cccc(-c4ccccc4)c3Br)c(Cl)cc2CN[C@@H](CO)C(=O)O)c1 [Example 20, N-(4-(2-bromo-3-phenylbenzyloxy)-5-chloro-2-(3-cyanobenzyloxy)benzyl) serine] | 2.48
5 | CCN(CCO)Cc1ccc(OCc2cccc(-c3ccccc3)c2Br)cc1OCc1cccc(C#N)c1 [Example 3, N-Ethyl-N-hydroxylethyl-4-(2-bromo-3-phenylbenzyloxy)-2-(3-cyanobenzyloxy) benzylamine] | 230
6 | COc1ccc(-c2cccc(COc3ccc(CNCCNC(C)=O)c(OCc4cccc(C#N)c4)c3)c2Br)cc1OC [Example 14, N-acetylaminoethyl-4-(2-bromo-3-(3,4-dimethoxyphenyl)benzyloxy)-2-(3-cyanobenzyloxy) benzylamine] | 6650
7 | C[C@H](O)[C@@H](NCc1cc(Cl)c(OCc2cccc(-c3ccccc3)c2Br)cc1OCc1cccc(C#N)c1)C(=O)O (stereo in doubt) [Example 26, N-(4-(2-bromo-3-phenylbenzyloxy)-5-chloro-2-(3-cyanobenzyloxy)benzyl) threonine] | ≤ 10
8 | CS(=O)(=O)c1cccc(COc2cc(OCc3cccc(-c4ccccc4)c3Br)c(Cl)cc2CN2CCCC[C@H]2C(=O)O)c1 (stereo in doubt) [Example 28, N-(4-(2-bromo-3-phenylbenzyloxy)-5-chloro-2-(3-methanesulfonylbenzyloxy)benzyl) pipecolinic acid] | ≤ 10
9 | C[C@H](O)[C@@H](NCc1ccc(OCc2cccc(-c3ccccc3)c2Br)cc1OCc1cccc(C#N)c1)C(=O)O (stereo in doubt) [Example 8, N-(4-(2-bromo-3-phenylbenzyloxy)-2-(3-cyanobenzyloxy)benzyl) threonine] | 134
10 | CS(=O)(=O)c1cccc(COc2cc(OCc3cccc(-c4ccccc4)c3Br)c(Cl)cc2CN[C@H](CO)C(=O)O)c1 (stereo in doubt) [Example 27, N-(4-(2-bromo-3-phenylbenzyloxy)-5-chloro-2-(3-methanesulfonylbenzyloxy)benzyl) serine] | ≤ 10
11 | C[C@@H](NCc1cc(Cl)c(OCc2cccc(-c3ccccc3)c2Br)cc1OCc1cccc(C#N)c1)C(=O)O (stereo in doubt) [Example 25, N-(4-(2-bromo-3-phenylbenzyloxy)-5-chloro-2-(3-cyanobenzyloxy)benzyl)alanine] | 3.16
12 | CC(=O)NCCNCc1ccc(OCc2cccc(-c3ccccc3)c2Br)cc1OCc1cccc(C#N)c1 [Example 1, N-acetylaminoethyl-4-(2-bromo-3-phenylbenzyloxy)-2-(3-cyanobenzyloxy) benzylamine] | 439
13 | CSCC[C@H](NCc1ccc(OCc2cccc(-c3ccccc3)c2Br)cc1OCc1cccc(C#N)c1)C(=O)O [Example 7, N-(4-(2-bromo-3-phenylbenzyloxy)-2-(3-cyanobenzyloxy)benzyl) methionine] | 4590
14 | COc1ccc(-c2cccc(COc3ccc(CN[C@@H](CO)C(=O)O)c(OCc4cccc(C#N)c4)c3)c2Br)cc1OC [Example 13, N-(4-(2-bromo-3-(3,4-dimethoxyphenyl)benzyloxy)-2-(3-cyanobenzyloxy)benzyl) serine] | 5350
15 | N#Cc1cccc(COc2cc(OCc3cccc(-c4ccccc4)c3Br)ccc2CN[C@@H](CO)C(=O)O)c1 [Example 2, N-(4-(2-bromo-3-phenylbenzyloxy)-2-(3-cyanobenzyloxy)benzyl) serine] | 29.4
16 | N#Cc1cccc(COc2cc(OCc3cccc(-c4ccc5c(c4)OCCO5)c3Br)c(Cl)cc2CN2CCCC[C@H]2C(=O)O)c1 [Example 24, (S)—N-(4-(2-bromo-3-(2,3-dihydrobenzo[b][1,4]dioxin-6-yl)benzyloxy)-5-chloro-2-(3-cyanobenzyloxy)benzyl) pipecolinic acid] | 67.5
17 | COc1ccc(-c2cccc(COc3ccc(CN[C@@H](C)C(=O)O)c(OCc4cccc(C#N)c4)c3)c2Br)cc1OC [Example 17, N-(4-(2-bromo-3-(3,4-dimethoxyphenyl)benzyloxy)-2-(3-cyanobenzyloxy)benzyl) alanine] | 3160
18 | N#Cc1cccc(COc2cc(OCc3cccc(-c4ccc5c(c4)OCCO5)c3Br)ccc2CN[C@@H](CO)C(=O)O)c1 [Example 18, N-(4-(2-bromo-3-(2,3-dihydrobenzo[b][1,4]dioxin-6-yl)benzyloxy)-2-(3-cyanobenzyloxy)benzyl) serine] | 38.5
19 | C[C@H](NCc1ccc(OCc2cccc(-c3ccccc3)c2Br)cc1OCc1cccc(C#N)c1)C(=O)O [Example 6, N-(4-(2-bromo-3-phenylbenzyloxy)-2-(3-cyanobenzyloxy)benzyl) alanine] | 178
20 | COc1ccc(-c2cccc(COc3ccc(CNCCO)c(OCc4cccc(C#N)c4)c3)c2Br)cc1OC [Example 11, N-hydroxylethyl-4-(2-bromo-3-(3,4-dimethoxyphenyl)benzyloxy)-2-(3-cyanobenzyloxy) benzylamine] | 7870
21 | N#Cc1cccc(COc2cc(OCc3cccc(-c4ccccc4)c3Br)ccc2CNCCO)c1 [Example 5, N-hydroxylethyl-4-(2-bromo-3-phenylbenzyloxy)-2-(3-cyanobenzyloxy) benzylamine] | 307
22 | CC(=O)NCCNCc1ccc(OCc2cccc(-c3ccc4c(c3)OCCO4)c2Br)cc1OCc1cccc(C#N)c1 [Example 16, N-acetylaminoethyl-4-(2-bromo-3-(2,3-dihydrobenzo[b][1,4]dioxin-6-yl)benzyloxy)-2-(3-cyanobenzyloxy) benzylamine] | 268
